Results reported in patent publication US7928239B2, “Inhibition of RAF kinase using quinolyl, isoquinolyl or pyridyl ureas” (Bayer Healthcare LLC, priority 1999, dated 2011).

SMILES	melting point
CNC(=O)c1ccc(Oc2ccc(NC(=O)Nc3ccc(Cl)c(C(F)(F)F)c3)cc2)cn1 [Entry 56, N-(4-chloro-3-(trifluoromethyl)phenyl)-N′-(4-(2-(N-methylcarbamoyl)-5-pyridyloxy)phenyl) urea]	238 to 245 °C
CNC(=O)c1cc(Oc2ccc(NC(=O)Nc3ccc(Oc4ccnc(C(=O)NC)c4)cc3)cc2)ccn1 [Entry 103, bis(4-(2-(N-methylcarbamoyl)-4-pyridyloxy)phenyl) urea]	125 to 130 °C
